System: HuVEC cells
Assay: VEGF-induced tube formation assay
Format: cell-based, human
Settings: VEGF (50 ng/ml), sulforaphane 5 uM
Method: The tube formation assay is an in vitro a model of angiogenesis commonly used to measure the ability of endothelial cells to form “tubes” (i.e. three-dimensional structures that resemble vessel walls). Tube formation studies were conducted in a 96-well plate format using an in vitro angiogenesis assay kit from Trevigen Inc. (Trevigen, Gaithersburg, Md.). Prior to tube formation assay, Huvec cells were starved overnight in EGM-2 basal medium in the culture dish. […] The cells were harvested and counted, and a single cell suspension at 1×10^6 cells/ml was prepared. […] Tube formation was visualized using a fluorescence microscope (485 nm excitation/520 nm emission) at 200× total magnification. Numbers of branch points were counted for each of six randomly chosen fields, and then averaged for each condition. […] Statistical significance was determined using student t-test.
The tube formation was quantified and expressed as mean number of branching points per viewing field as shown in FIG. 5F for the high dose treatment using nanoparticles of ZnMoS4.
The Huvec cells were harvested, counted, and diluted in EBM-2 basal medium in the presence (Panels B-E) or absence (Panels A) of VEGF (50 ng/ml) and ZnMoS4 NPs at 50 ng/ml (Panel C) and 10 ng/ml (Panel D). […] F. Quantitative assessment of the tube formation was done by counting the average number of branch points per viewing field. […]

`C[S+]([O-])CCCCN=C=S` (stereo not shown) [sulforaphane] was tested, and the tube formation was “prevented tube formation”.

From patent US20160220500A1, “Targeting Intracellular Copper Ions for Inhibiting Angiogenesis Using Nanoparticles of Ternary Inorganic Metal Sulfide M1M2S4 (M1, independently, is Mg, Ca, Mn, Fe, or Zn; M2 = Mo or W) Compounds to Treat Metastatic Cancer” (KENT STATE UNIVERSITY, priority 2014, published 2016)
